Assay results reported in patent US12691100B2, “NMT inhibitor treatment of a senescence-associated disease or disorder of the liver” (Imperial College Innovations Limited, priority 2020, dated 2026).

Key:
IMR90 cells = test: Senolytic survival assay, doxorubicin-induced senescence; assay type: cell-based, human; conditions: doxorubicin or DMSO; compounds added 7 days after induction; read 7 days later; FIGS. 3A-B
Procedure: IMR90 cells were used to generate inducible ER:RAS (hereinafter iRAS) cells to model Oncogene induced senescence (OIS), through retroviral infection of pLNC-ER:RAS-neo into IMR90 cells followed by selection with Neomycin. IMR90 cells containing the pLNC-ER:RAS plasmid backbone pLXSN were infected in parallel to assess leakiness in the pLNC-ER:RAS system. Treatment with 100 nM 4OHT (Sigma, in DMSO) was used to induce IMR90 ER:RAS cells to undergo oncogene induced senescence (OIS). […]
High-throughput microscopy survival assay—To assess senolytic effect of drugs, cells were cultured for 7 days, culture media was changed to DM0.5 media and drugs in DMSO were added (<5% v/v final concentration), drugs were replenished after 3 days if assay length was longer than 72 h. […] Image acquisition of DAPI stained cells was performed on an automated InCell Analyser 2000 (GE Healthcare®) and high-content analysis on the InCell Investigator 2.7.3 software used to quantify number of DAPI positive cells per well. […] Survival was measured as cell counts relative to DMSO treated quiescent or senescent cells.
IMR90 cells were treated with doxorubicin (to induce senescence), or DMSO (as a control). […] Senolytic activity of inhibitors was determined 7 days after adding the drugs with replenishment after 3 days, cells were fixed, imaged and cells numbers were quantified using high throughput microscopy. […]

senescent cells = test: Senolytic activity in old mice (senescent-associated β-galactosidase staining); assay type: in vivo, C57BL/6J female mice; conditions: ~26 month female mice, 10 mg/kg i.p., versus vehicle
Procedure: Lung and liver samples frozen in optimal cutting temperature (OCT) were cryosectioned (15 μM) and frozen sections fixed in ice-cold 0.5% Glutaraldehyde (w/v, PBS) for 15 min and washed 1 mM MgCl2/PBS (pH 6.0) for 5 min. β-galactosidase activity was stained for with X-gal staining solution (1 mg ml^−1 X-gal, ThermoFisher Scientific, 5 mM K3(Fe(CN)6), 5 mM K4(Fe(CN)6)) for 18 h at 37° C. Slides were dehydrated and coverslips mounted prior to being imaged using 20× brightfield objective on Zeiss AxioScan Z.1 slide scanner. ImageJ was used to quantify staining by measuring the β-gal stained area as a percentage of the total tissue area excluding luminal spaces.

SMILES | Survival (cell counts relative to DMSO), senescent versus control cells (IMR90 cells) | Senescent cells in livers (senescent-associated β-galactosidase staining) (senescent cells; FIG. 17B) | Senescent cells in lungs (senescent-associated β-galactosidase staining) (senescent cells; FIG. 17C)
Cc1nn(C)c(C)c1CCOc1c(-c2ccc3c(c2)c(CN(C)C)nn3C)ccc(F)c1F [Compound 1, 1-(5-(3,4-difluoro-2-(2-(1,3,5-trimethyl-1H-pyrazol-4-yl)ethoxy)phenyl)-1-methyl-1H-indazol-3-yl)-N,N-dimethylmethanamine] | selectively kill senescent cells induced to senescence by doxorubicin | – | –
Cc1c(NS(=O)(=O)c2c(Cl)cc(-c3ccnc(N4CCNCC4)c3)cc2Cl)c(CC(C)C)nn1C [Compound 2] | – | lower levels of senescent cells | lower levels of senescent cells
